In a melting point compilation (Tetko et al.; mined from patent text by program, amines drawn as free bases though some values may be those of a salt):

| SMILES | melting point |
| --- | --- |
| CC1=Cc2cc(Br)cc(S(N)(=O)=O)c2OS1(=O)=O | 243 to 245 °C |
| CN1CCC(c2c[nH]c3ccc(NC(=O)c4ccc5ccccc5c4)cc23)CC1 | 153 to 156 °C |
| CC(=N)Nc1cccc(Br)c1 | 208 to 210 °C |
| COc1ccc2c(c1)CC[C@@H]1[C@@H]2CC[C@@]2(C)[C@H]1CCC21C=CCO1 (stereo partly drawn) | 159 to 161 °C |
| CC(=O)OC1CSC(Oc2cccnc2N=CN(C)C)C(OC(C)=O)C1OC(C)=O (stereo not drawn) | 120 °C |
| CN1CC=C(c2cnn3c(-c4cccc(NC(=O)c5cccc(C(F)(F)F)c5)c4)ccnc23)CC1 | 163 to 165 °C |
| CCCC[C@H](NC(=O)OC(C)(C)C)C(=O)CCCc1cccs1 | 50.5 to 52.5 °C |
| COc1nc(NCCNC(C)C)nc(OC)c1[N+](=O)[O-] | 135 °C |
| COc1ccc(C(=O)NCc2c(C=O)cc(C)n2CCNC(C)=O)cc1OC | 165 to 167 °C |
| C[Si](C)(C)C1=CC(=O)C([Si](C)(C)C)=CC1=O | 180 °C |
| Cc1nn(C)c(N)c1C(=O)Nc1ccccc1C(C)C | 144 to 146 °C |
| CC1(C)CC(O)CC(C)(C)N1N=Nc1ccccc1 | 68 to 70 °C |
| Nc1ncnc2c1c(-c1ccc(OCc3ccccc3)cc1)cn2-c1cccc(OCCCl)c1 | 146 to 148 °C |
| O=C(N[C@H]1CCCNC1=O)c1ccc(F)cc1F | 140 to 141 °C |
| O=C(O)c1cn(-c2c[nH]nn2)c2cc(F)c(F)cc2c1=O | 215 to 224 °C |
| CCCc1nc2cc(C(=O)c3ccccc3)ccc2n1Cc1ccc(C(=O)OCC)cc1 | 126 to 128 °C |
| FC(F)(F)c1ccc(C=Cc2nc[nH]n2)cc1 | 141 to 143 °C |
| Clc1ccc(Cn2cc(C=Cc3cccnc3)c3cc(OCc4ccc5ccccc5n4)ccc32)cc1 | 169 to 171 °C |
| Cc1ccc2ccccc2c1Nc1ccccc1C(=O)O | 215 to 216 °C |
| Cc1ccc(-c2ccc(Cl)cc2)cc1C#CC(C)(C)OCC(=O)O | 125 °C |
| O=C(Nc1ccc(N2CCOCC2)cc1)N(C[C@H]1CC[C@H](CN(C(=O)Nc2ccc(N3CCOCC3)cc2)C2CCCCC2)CC1)C1CCCCC1 | 156 to 158 °C |
| COc1ccc(/C=N/Nc2cc(=O)[nH]c3cc(Cl)ccc23)cc1OC1CCCC1 | 210 to 212 °C |
| CCOC(=O)COc1cc(F)ccc1[N+](=O)[O-] | 37 to 39 °C |
| COc1cc(-c2c(Cl)c(CN3C(=O)CCC3=O)nc3sc4c(c23)CCN(C(C)=O)C4)ccc1O | 273 to 275 °C |
| CCN1C(=O)C(C)(C(=O)O)Oc2ccccc21 (stereo not drawn) | 164 to 168 °C |

| SMILES | melting point |
| --- | --- |
| NC(=O)C(c1ccc(Cl)cc1)c1ccc(-n2ncc(=O)[nH]c2=O)cc1Cl (stereo not drawn) | 161 °C |
| N#Cc1cccc(Cc2ccccc2C=NC(c2ccccc2)c2ccccc2)c1 | 113 to 115 °C |
| C#Cc1cccc(NC(=O)c2cc(-c3ccc(F)cc3F)ccc2O)c1 | 215 to 216 °C |
| Fc1cc(CC2(Cc3ccnc(F)c3)c3cccnc3-c3ncccc32)ccn1 | 239 to 241 °C |
| CN(C)C(=O)Nc1cc(O)cc(O)c1 | 230 °C |
| CCNc1nc(-c2ccc(NC(=O)NCc3cccnc3)cc2)ccc1C(=O)NC | 260 to 263 °C |
| Cc1nc(N)c2nc(CO)n(Cc3cc(-c4ccc(F)cc4)no3)c2c1C | 164 to 165 °C |
| O=[N+]([O-])c1cccc(Oc2ccc(-c3ccccc3)cc2)c1 | 97.6 to 98.8 °C |
| CS(=O)Cc1ccc(Cl)nc1 (stereo not drawn) | 72 to 74 °C |
| CCCCOC(=O)CN(C(=O)C(F)(F)F)C(NC(C)C)P(=O)(O)OSCC (stereo not drawn) | 64 to 65 °C |
| NC(=O)OCC(Cc1ccccc1)NC(=O)C1CCN(c2c(Cl)cncc2Cl)CC1 (stereo not drawn) | 147 to 149 °C |
| Cc1cc(Cl)cc2c(=O)oc(-c3cc(Br)nn3-c3ncccc3Cl)nc12 | 203 to 205 °C |
| CC(C)(C)OC(=O)C(=CC1C(C(=O)O)C1(C)C)OC(C)(C)C (stereo not drawn) | 85 °C |
| CC(O)/C=C/c1ccc(-c2ccccc2)cc1 (stereo not drawn) | 138 to 139 °C |
| COc1ccccc1C(=O)c1cccc(N)c1 | 81 °C |
| CC(C)(C)c1ccc(CC(=O)CCCl)cc1 | 46 to 49 °C |
| CCOC(=O)C1=C(C)NC(O)(C(F)(F)F)C(C(=O)OCC)C1c1cccc([N+](=O)[O-])c1 (stereo not drawn) | 120 to 121 °C |
| COC(=O)c1ccc(-c2ccc3cc(OCc4ccccc4)c(C45CC6CC(CC(C6)C4)C5)cc3c2)cc1 | 170 to 173 °C |
| CC(C)Cn1c(CO)c(OCCCC(F)(F)F)c2cc(OCc3ccccc3)ccc2c1=O | 112 to 113 °C |
| CN(CCOc1ccc(CC2SC(=O)NC2=O)cc1)c1nc2ccccc2s1 (stereo not drawn) | 167 to 168 °C |
| Cc1ccc2c(=O)[nH]c(C3CCN(C)CC3)cc2c1 | 236 to 238 °C |
| CN1CCN(CCCc2cc3ccccc3c(=O)[nH]2)CC1 | 120 to 122 °C |
| O=C(c1ccccc1SSc1ccccc1C(=O)N1CCOCC1)N1CCOCC1 | 103 to 110 °C |
| Cc1cc(C2=NOC(c3cc(Cl)cc(Cl)c3)(C(F)(F)F)C2)ccc1C(=O)NCC(N)=O (stereo not drawn) | 87 to 91 °C |
| O=c1ccn(-c2ccccc2N2CCOCC2)nc1-c1ccnn1-c1ccccc1 | 200 to 201 °C |

| SMILES | melting point |
| --- | --- |
| Cc1c(C(=O)c2cnn(C(C)(C)C)c2O)ccc(S(C)(=O)=O)c1C1=NOC2CC12 (stereo not drawn) | 69 to 74 °C |
| CC(C)(C)OC(=O)n1c(=O)n(C2CC3CC(N4CCN(c5ccc(F)cc5)CC4)CC3C2)c2ccccc21 (stereo not drawn) | 244 to 245 °C |
| CCCn1nc2c(N)nc3ccccc3c2c1CC(C)(C)NC(=O)C(C)C | 177 to 178 °C |
| COC1C=C(C)C(=O)CC(C)(C)C1OC(=O)c1ccc2nc[nH]c2c1 (stereo not drawn) | 155 to 157 °C |
| CCOC(=O)C=Cc1ccc(OCc2nc(-c3ccco3)oc2C)c(OC)c1 | 142 to 143 °C |
| CCc1cc(CNc2cccc3ccccc23)c(OC)nc1C | 82 to 83 °C |
| CC(C)NC(=O)C(O)C(Cc1ccccc1)NC(=O)OC(C)(C)C (mixture of isomers) | 126 to 145 °C |
| C#CCN1C(=O)COc2cc(F)c(N3C(=O)C4C5CC5CN4C3=O)cc21 (stereo not drawn) | 217 to 219 °C |
| O=C(Nc1ccc2[nH]c(=O)c(=O)[nH]c2c1)C(F)(F)F | > 330 °C |
| O=C(O)C1CCCc2c1ccc1c2OCO1 (stereo not drawn) | 225 to 257 °C |
| CCc1nc(/C=C/c2cccc(Cl)c2Cl)no1 | 107 to 109 °C |
| CC1=C(O)C(=O)C(C)(C(C)O)O1 (stereo not drawn) | 112 to 114 °C |
| Cc1ccc2c(Cl)nccc2c1[N+](=O)[O-] | 171 to 173 °C |
| COc1ccc2c(=O)c(C#N)c(N)oc2c1 | 300 °C |
| CC(=O)OC1CSC(Oc2cncc(-c3cccc(C#N)c3)c2)C(OC(C)=O)C1OC(C)=O (stereo not drawn) | 130 to 131 °C |
| CNC(=O)C#Cc1ccccc1C | 52 to 55 °C |
| CN(Cc1sc2c(=O)c(C(=O)NCc3ccc(Cl)cc3)cn(C)c2c1CN)C[C@@H](O)c1ccccn1 | 144 to 148 °C |
| Cn1c(=O)nc(-c2ccccc2)c2cc3c(cc21)OCO3 | 253 to 255 °C |
| COc1ccc(N(Cc2ccc(N(C)C)cc2)C(=O)C2CCCc3c(O)cccc32)cc1 (stereo not drawn) | 195 to 197 °C |
| Cn1c(C(F)(F)F)cc(=O)n(-c2ccc3snc(COCC(=O)O)c3c2)c1=O | 191 to 192 °C |
| Cc1cn(C(C)(C)C(=O)N(C)C)nc1-c1ccccc1F | 112 to 114 °C |
| Cc1cc2c(s1)Nc1ccccc1N=C2N1CCN(C)[C@@H](CO)C1 | 118 to 124 °C |
| N#CCOc1nsc2ccc(-n3c(=O)cc(C(F)(F)F)[nH]c3=O)cc12 | 254 to 258 °C |
| CCCN(c1ccncc1)N1C(=O)Cc2ccccc21 | 140 to 143 °C |
| N#Cc1c(-c2ccc(N)cc2)cc(-c2ccccc2O)nc1NC(=O)c1cccs1 | 292 to 293 °C |

| SMILES | melting point |
| --- | --- |
| Cc1c(C(=O)c2ccccc2F)n(N2C(=O)c3ccccc3C2=O)c2ccccc12 | 197 to 199 °C |
| CC(=O)NCc1ccc(CN2CCN(c3ccncc3)CC2)cc1 | 164 to 166 °C |
| COC(=O)C(Cl)=C(NC1CC1)C(C(=O)OC)C(=O)C(F)F (stereo not drawn) | 55 to 57 °C |
| O=C1CCC2=C1C(c1ccc(F)c(Br)c1)C1=C(CCCCS1)N2 (stereo not drawn) | 210 °C |
| Cc1ccccc1CN1CCc2ccc(C(=O)CCC(=O)N3CCC(c4ccc(Cl)cc4)CC3)cc2CC1 | 108 to 109 °C |
| Cc1cc(CCCCCOc2c(C)cc(-c3nnn(CCO)n3)cc2C)on1 | 69 to 70 °C |
| Cn1c(=O)c2c(ncn2C(=O)CCC(=O)n2cnc3c2c(=O)n(C)c(=O)n3C)n(C)c1=O | 266 °C |
| Cc1noc(NC(=O)N2CCN(c3cncc(-c4ccc(F)cc4F)n3)CC2)c1C | 225 to 226 °C |
| c1ccc(C(c2ccccc2)N2CC2)cc1 | 56 to 58 °C |
| Nc1cc(C(=O)O)cc(S(N)(=O)=O)c1NCc1ccccc1 | 218 to 219 °C |
| CCNC(=O)Oc1ccc2c(N(C)CCN3CCOCC3)noc2c1 | 99 to 100 °C |
| CC(C)(C)OC(=O)CCc1ccnc(-c2nc(=O)c3ccc(Cl)cc3s2)c1 | 152 °C |
| CCCCC(CC)COC(=O)CSCc1cc(C(C)(C)C)c(O)c(C(C)(C)C)c1 (stereo not drawn) | 20 °C |
| CC1(C)CC(N(CCCCCCN(c2nc(Cl)nc(Cl)n2)C2CC(C)(C)NC(C)(C)C2)c2nc(Cl)nc(Cl)n2)CC(C)(C)N1 | 161 to 163 °C |
| CCOC(=O)c1c(CC)nn2c(-c3cccnc3)ccnc12 | 119 to 120 °C |
| O=C(Nc1ccc(N2CCCCC2)cc1)N(C[C@@H]1CCC[C@H](CN(C(=O)Nc2ccc(N3CCCCC3)cc2)C2CCCCC2)C1)C1CCCCC1 | 174 to 178 °C |
| CCOC(=O)c1nc(C(=O)Oc2ccccc2)sc1N | 168 °C |
| O=C(Cn1c(-c2ccc(Cl)cc2)nc2cccnc21)NC1CCCC1 | 260 to 261 °C |
| CSc1ccc(-c2cc3ncn([C@H](C)[C@](O)(Cn4cncn4)c4ccc(F)cc4F)c(=O)c3s2)cc1 | 223 to 224 °C |
| Cc1cc(-c2ccc(C(F)(F)F)cc2)cc(-c2ccnc(-c3ccc(S(N)(=O)=O)s3)c2)n1 | > 250 °C |
| C[C@@H](n1cnc2cc(-c3ccc(S(C)(=O)=O)cc3)sc2c1=O)[C@](O)(Cn1cncn1)c1ccc(F)cc1F | 281 to 282 °C |
| O=C1CC(c2ccccc2)Cc2[nH]c3c(c21)CCCC3 (stereo not drawn) | 257 to 259 °C |
| N#Cc1ccc(N)cc1Sc1ccccc1 | 69 to 71 °C |
